In ChEMBL document CHEMBL1146888, “Synthesis and cytotoxicity of leinamycin antibiotic analogues” (J Med Chem, 2006):

What was measured:
[1] = system: HeLa; assay: Cytotoxicity against human HeLa3 cell line in presence of ethanethiol by MTT assay; assay type: functional, cell-based
[2] = system: HeLa; assay: Cytotoxicity against human HeLa3 cell line by MTT assay; assay type: functional, cell-based

SMILES	IC50 [1] [µM]	IC50 [2] [µM]
CC1(C)O[C@H]([C@H]2COC(C)(C)O2)[C@@H](C2CC(=O)S[S+]2[O-])O1 (stereo partly drawn)	12.6	18.2
O=C1CC(CCc2ccccc2)[S+]([O-])S1 (stereo not drawn)	24.8	68.4
O=C1CC(CCc2ccccc2)SS1 (stereo not drawn)	65.5	258
Cc1cn([C@H]2C[C@H](O)[C@@H](C3CC(=O)SS3)O2)c(=O)[nH]c1=O (stereo partly drawn)	54.6	299
Cc1cn([C@H]2C[C@H](O)[C@@H](C3CC(=O)S[S+]3[O-])O2)c(=O)[nH]c1=O (stereo partly drawn)	29.7	119
CC(C)(C)[Si](C)(C)O[C@@H]1[C@H](O[Si](C)(C)C(C)(C)C)[C@@H](C2CC(=O)SS2)O[C@H]1n1ccc(=O)[nH]c1=O (stereo partly drawn)	7.84	10
O=C1CC(CCC#CCOC2CCCCO2)SS1 (stereo not drawn)	20.1	124
O=C1CC([C@H]2O[C@@H](n3ccc(=O)[nH]c3=O)[C@H](O)[C@@H]2O)[S+]([O-])S1 (stereo partly drawn)	7.01	50.7
Cc1cn([C@H]2C[C@H](O[Si](C)(C)C(C)(C)C)[C@@H](C3CC(=O)SS3)O2)c(=O)[nH]c1=O (stereo partly drawn)	16.7	–
CC(C)(C)[Si](C)(C)O[C@@H]1[C@H](O[Si](C)(C)C(C)(C)C)[C@@H](C2CC(=O)S[S+]2[O-])O[C@H]1n1ccc(=O)[nH]c1=O (stereo partly drawn)	2.67	3.68
Cc1cn([C@H]2C[C@H](O[Si](C)(C)C(C)(C)C)[C@@H](C3CC(=O)S[S+]3[O-])O2)c(=O)[nH]c1=O (stereo partly drawn)	6.61	43.1
O=C1CC(CCC#CCOC2CCCCO2)[S+]([O-])S1 (stereo not drawn)	8.33	62.9
CC1(C)O[C@H]([C@H]2COC(C)(C)O2)[C@@H](C2CC(=O)SS2)O1 (stereo partly drawn)	16.9	35.9
O=C1CC([C@H]2O[C@@H](n3ccc(=O)[nH]c3=O)[C@H](O)[C@@H]2O)SS1 (stereo partly drawn)	20.7	62.2
COc1cccc2c1C(=O)c1c(O)c3c(c(O)c1C2=O)C[C@@](O)(C(C)=O)C[C@@H]3OC1C[C@H](N)[C@H](O)[C@H](C)O1 (single isomer, unassigned) [DAUNORUBICIN]	–	2.96
